Test results from patent US5605921A, “Triazole derivatives and salts thereof, and antifungal agent containing the same” (Toyama Chemical Co., Ltd., priority 1991, dated 1997).
In brackets after ≈: the same amount, converted by molar mass.

Legend:
Candida albicans ON28 [1] = assay: Minimum inhibitory concentration (MIC) against Candida albicans ON28; assay type: cell-based; settings: ON28, 72 h, TC broth medium, 10^4 spores/ml, 37° C., 3 days
Protocol: (§1) MIC was determined in accordance with the method of M. S. Marriott [25th Interscience Conference on Antimicrobial Agents and Chemotherapy, p. 243 (1985)].
(§2) Candida albicans ON28 was cultured in a sabouraud dextrose agar medium containing 10 g of neopeptone, 20 g of glucose and 15 g of agar per liter, at 30° C. for 1-2 days. The yeast cells were suspended in sterile distilled water. Separately, Aspergillus fumigatus IFO8868 was cultured in a potato dextrose agar medium (manufactured by Nissui Pharmaceutical Co., Ltd.) at 30° C. until the conidia were formed abundantly. The formed conidia were suspended in a sterile physiological saline containing 0.1% of Tween 80. Each of the Candida albicans suspension and the Aspergillus fumigatus suspension was inoculated into a TC broth medium (containing 1.17 g of an yeast carbon base, 0.25 g of ammonium sulfate, 2.0 ml of a 50-fold concentrate of L-glutamic acid-containing MEM amino acid, 20 ml of a 0.5M phosphate buffer of pH 7.5 and 1.33 ml of 7.5% sodium hydrogencarbonate per 100 ml) containing a test compound, so that the final fungal amount became 10^4 spores/ml. Then, culture was conducted at 37° C. for 3 days. Thereafter, the growth of fungi was examined. The minimum concentration of test compound at which the growth of fungi had been inhibited, was taken as MIC (μg/ml).

[2] = test system: Aspergillus fumigatus IFO8868; assay: Minimum inhibitory concentration (MIC) against Aspergillus fumigatus IFO8868; assay type: cell-based; settings: IFO8868, 72 h, TC broth medium, 10^4 spores/ml, 37° C., 3 days
Protocol: as §1, §2

Candida albicans ON28 [3] = assay: Therapeutic effect, oral, mice infected with Candida albicans ON28 (1), Table 2a; assay type: in vivo, ICR strain male mice infected with Candida albicans ON28; settings: average survival days of Ketoconazole taken as 100; Candida albicans 3.5×10^6 cells/mouse i.v.; 0.1 mg/mouse oral, 2 hours after infection; 10 days observation; 5 mice
Protocol: (1) The therapeutic effects of the present compounds, when they were administered orally, were examined using mice infected with Candida albicans ON28.
(§3) Candida albicans ON28 was injected in a proportion of 3.5×10^6 cells/mouse to a group of 5 ICR strain male mice (weight: 19-21 g) intravenously at the tails, whereby the mice were infected with the fungi. […] The relative therapeutic index of the test compound was determined from the average survival days.
The results are shown in Table 2a, in which the relative therapeutic index of each test compound is a value calculated by taking the average survival days Ketoconazole as 100.

[4] = test system: Aspergillus fumigatus IFO8868; assay: Therapeutic effect, oral, mice infected with Aspergillus fumigatus IFO8868 (2), Table 2b; assay type: in vivo; settings: average survival days of Ketoconazole taken as 100; Aspergillus fumigatus 3.6×10^6 cells/mouse i.v.; 0.8 mg/mouse oral, 2 hours after infection; 10 days observation; 5 mice
Protocol: (2) The therapeutic effects of the present compounds, when they were administered orally, were examined using mice infected with Aspergillus fumigatus IFO8868.
as §3, with “Aspergillus fumigatus IFO8868” for “Candida albicans ON28”, “3.6×10^6” for “3.5×10^6”
The results are shown in Table 2b, in which the relative therapeutic index of each test compound is a value calculated by taking the average survival days of Ketoconazole as 100.

Candida albicans ON28 [5] = assay: Therapeutic effect, oral, mice infected with Candida albicans ON28 (3), Table 2c; assay type: in vivo, ICR strain male mice infected with Candida albicans ON28; settings: average survival days of Ketoconazole taken as 100; Candida albicans 5.7×10^6 cells/mouse i.v.; 0.1 mg/mouse oral, 2 hours after infection; 10 days observation; 10 mice
Protocol: (3) The therapeutic effects of the present compounds, when they were administered orally, were examined using mice infected with Candida albicans ON28.
as §3, with “5.7×10^6” for “3.5×10^6”, “10” for “5”
The results are shown in Table 2c, in which the relative therapeutic index of each test compound is a value calculated by taking the average survival days Ketoconazole as 100.

[6] = test system: Aspergillus fumigatus IFO8868; assay: Therapeutic effect, oral, mice infected with Aspergillus fumigatus IFO8868 (4), Table 2d; assay type: in vivo; settings: average survival days of Ketoconazole taken as 100; Aspergillus fumigatus 5.8×10^6 cells/mouse i.v.; 0.8 mg/mouse oral, 2 hours after infection and once daily for six consecutive days; 10 days observation; 10 mice
Protocol: (4) The therapeutic effects of the present compounds, when they were administered orally, were examined using mice infected with Aspergillus fumigatus IFO8868.
as §3, with “Aspergillus fumigatus IFO8868” for “Candida albicans ON28”, “5.8×10^6” for “3.5×10^6”, “10” for “5”
The results are shown in Table 2d, in which the relative therapeutic index of each test compound is a value calculated by taking the average survival days of Ketoconazole as 100.

[7] = Acute toxicity in mice, intravenous; assay type: in vivo; settings: intravenous at the tail, ICR strain male mice, group of 5; 50% solution in polyethylene glycol 300
Protocol: Each of the compounds of Examples 10, 12, 19, 79, 142 and 146 was administered to a group of 5 ICR strain male mice (weight: 29-31 g) intravenously at the tails, and the acute toxicity of each compound was examined.
Each compound was administered in the form of a 50% solution in polyethylene glycol 300.

| Compound | MIC (Candida albicans ON28 [1]) [µg/mL] | MIC [2] [µg/mL] | Relative therapeutic index (Candida albicans ON28 [3]) | Relative therapeutic index [4] | Relative therapeutic index (Candida albicans ON28 [5]) | Relative therapeutic index [6] | dose up to which no dead case occurred (acute toxicity) [7] [mg/kg] |
| --- | --- | --- | --- | --- | --- | --- | --- |
| CCNC(=O)C(F)(F)C(O)(Cn1cncn1)c1ccc(F)cc1F (centres unmarked) [Example 12] | 0.2 (≈ 0.578 µM) | 25 (≈ 72.2 µM) | 440 | 150 | 445 | 237 | ≥ 100 |
| O=C(NC1CC1)C(F)(F)C(O)(Cn1cncn1)c1ccc(F)cc1F (centres unmarked) [Example 19] | 0.1 (≈ 0.279 µM) | 50 (≈ 140 µM) | 625 | 164 | 405 | 253 | ≥ 100 |
| O=C(NC1CC1)C(F)(F)C(O)(Cn1cncn1)c1ccc(F)cc1Cl (centres unmarked) [Example 30] | 0.2 (≈ 0.534 µM) | 12.5 (≈ 33.4 µM) | 355 | 207 | 414 | 358 |  |
